Measurements taken from patent US5952368A, “5-aroylpyrrol-2-ylmethylarene derivatives” (Syntex (U.S.A.) Inc., priority 1997, dated 1999).

Assays:
COX I = molecular target: T1, COX I (Homo sapiens, UniProt P23219); test: Inhibition of COX I in vitro (radiometric assay, 14C arachidonic acid, partially purified enzyme); format: biochemical; details: partially purified COX I, 20 micromolar arachidonic acid, 10 min preincubation, room temperature; read-out: COX I IC50
T1 construct: made in house; baculovirus-infected insect cells by own knowledge of the cited Barnett et al. 1994
T1 sequence (P23219 24-599): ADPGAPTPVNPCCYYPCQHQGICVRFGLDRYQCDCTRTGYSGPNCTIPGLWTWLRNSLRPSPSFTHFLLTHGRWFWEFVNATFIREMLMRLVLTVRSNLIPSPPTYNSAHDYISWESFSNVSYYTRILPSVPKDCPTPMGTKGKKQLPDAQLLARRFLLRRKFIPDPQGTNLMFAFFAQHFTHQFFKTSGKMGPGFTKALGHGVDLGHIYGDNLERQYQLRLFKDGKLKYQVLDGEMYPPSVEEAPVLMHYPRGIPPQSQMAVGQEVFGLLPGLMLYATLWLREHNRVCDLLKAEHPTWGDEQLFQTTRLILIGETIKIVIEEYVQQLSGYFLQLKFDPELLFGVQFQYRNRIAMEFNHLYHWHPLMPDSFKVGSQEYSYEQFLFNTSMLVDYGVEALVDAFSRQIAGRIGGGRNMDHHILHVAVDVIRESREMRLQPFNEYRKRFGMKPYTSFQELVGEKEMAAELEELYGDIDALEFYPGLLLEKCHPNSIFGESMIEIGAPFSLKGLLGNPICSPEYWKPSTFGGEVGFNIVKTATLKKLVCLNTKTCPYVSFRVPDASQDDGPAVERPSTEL
Procedure: (§1) The COX I and COX II inhibitory activity of compounds of this invention in vitro was determined using partially purified COX I and COX II enzymes, prepared as described in J. Barnett et al., Biochim. Biophys. Acta, 1209:130--139 (1994).
(§2) COX I and COX II samples were diluted with Tris-HCl buffer (50 mM Tris-HCl pH 7.9) containing 2 mM EDTA and 10% glycerol and reconstituted by incubating first with 2 mM phenol for 5 minutes and then with 1 micromolar hematin for an additional 5 minutes. 125 μl of the reconstituted COX I or COX II enzyme were preincubated for 10 minutes at room temperature in a shaking water bath with the compounds of the invention dissolved in 2-15 μl of DMSO or the carrier vehicles (control samples). The enzyme reaction was initiated by adding 25 μl of 1-[14C] arachidonic acid (80,000-100,000 cpm/tube; 20 micromolar final concentration) and the reaction was allowed to continue for an additional 45 seconds. The reaction was terminated by adding 100 μl of 2N HCl and 750 μl water. An aliquot (950 μl) of the reaction mixture was loaded onto a 1 ml C18 Sep-Pak column (J. T. Baker, Phillipsburg, N.J.) which had been previously washed with 2-3 ml methanol and equilibrated with 5-6 ml distilled water. Oxygenated products were quantitatively eluted with 3 ml of acetonitrile/water/acetic acid (50:50:0.1, v/v) and the radioactivity in the eluate determined in a scintillation counter.

COX II = molecular target: T2, COX II (Homo sapiens, UniProt P35354); test: Inhibition of COX II in vitro (radiometric assay, 14C arachidonic acid, partially purified enzyme); format: biochemical; details: partially purified COX II, 20 micromolar arachidonic acid, 10 min preincubation, room temperature; read-out: COX II IC50
T2 construct: made in house; baculovirus-infected insect cells by own knowledge of the cited Barnett et al. 1994
T2 sequence (P35354 18-604): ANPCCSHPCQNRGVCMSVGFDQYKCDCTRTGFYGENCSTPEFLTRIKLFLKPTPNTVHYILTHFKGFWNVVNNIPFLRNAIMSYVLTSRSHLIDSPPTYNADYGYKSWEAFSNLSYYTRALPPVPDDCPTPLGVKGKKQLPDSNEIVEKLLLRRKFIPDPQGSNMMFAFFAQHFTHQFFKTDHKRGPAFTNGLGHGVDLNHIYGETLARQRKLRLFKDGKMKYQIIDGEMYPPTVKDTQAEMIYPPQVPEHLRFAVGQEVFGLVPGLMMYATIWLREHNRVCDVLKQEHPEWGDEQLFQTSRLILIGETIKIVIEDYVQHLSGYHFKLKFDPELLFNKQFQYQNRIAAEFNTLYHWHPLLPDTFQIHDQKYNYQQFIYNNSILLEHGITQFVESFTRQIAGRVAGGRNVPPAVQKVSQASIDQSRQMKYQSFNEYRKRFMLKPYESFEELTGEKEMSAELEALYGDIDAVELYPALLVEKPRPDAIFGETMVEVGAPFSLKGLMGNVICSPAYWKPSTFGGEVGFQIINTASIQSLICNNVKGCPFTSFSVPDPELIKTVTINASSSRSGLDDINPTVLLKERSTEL
Procedure: as §1, §2

air pouch PGE2 formation = test: Inhibition of eicosanoid (PGE2) synthesis in vivo: carrageenan air-pouch model in rats; design: species or system rat; details: 30 mg/Kg, oral, male rats, 6 hr
Procedure: In this assay, an air-pouch is created in the rat and the PGE2 levels in the air-pouch exudate are measured by enzyme immunoassay. Briefly, male rats were anesthetized using a 60:40 CO2 :O2 mixture and subsequently injected subcutaneously with 20 ml of sterilized air, under aseptic conditions, in the proximal area of the dorsum. This injection of sterile air causes the creation of a subcutaneous "air pouch". The next day, a further 10 ml of sterile air was injected into the previously formed pouch using the same technique. […] Control rats received vehicle alone. After 30 minutes, 5 ml of a 0.5% solution of carrageenan (Sigma, Lambda Type IV) was injected into the air pouch. The rats were euthanized 3 or 6 h after the compound administration. […] The total exudate volume was recorded, and the samples were analyzed for PGE2 and 6-keto PGF1 by ELISA (Titerzyme®, PerSeptive Diagnostics) and TxB2 by radioimmuno assay (New England Nuclear Research, Catalog No. NEK-037), according to the manufacturer's directions.
The mean concentrations of PGE2 were calculated for each group. The anti-inflammatory activity of test materials is expressed as the percent inhibition of PGE2 formation in the test group relative to the control group.

| IC50 (COX I) [nM] | IC50 (COX II) [nM] | SMILES | % Inhibition of air pouch PGE2 formation (air pouch PGE2 formation) [%] |
| --- | --- | --- | --- |
| 15000 | 510 | CNC(=S)Nc1ccc(Cc2cc(C)c(C(=O)c3ccc(Cl)cc3)n2C)cc1 [compound 236] | 71 |
| 270 | 65 | Cc1ccc(C(=O)c2c(C)cc(Cc3ccc(NS(C)(=O)=O)cc3F)n2C)cc1 [compound 38, N-{3-Fluoro-4-[5-(4-methylbenzoyl)-1,4-dimethyl-1H-pyrrol-2-ylmethyl]phenyl}-methanesulfonamide] | – |
| 860 | 73 | CCS(=O)(=O)Nc1ccc(Cc2cc(C)c(C(=O)c3ccccc3)n2C)c(F)c1 [compound 68, N-{3-Fluoro-4-[5-benzoyl-1,4-dimethyl-1H-pyrrol-2-ylmethyl]phenyl}ethanesulfonamide] | – |
| 43000 | 90 | CNS(=O)(=O)Nc1ccc(Cc2ccc(C(=O)c3ccc(C)cc3C)n2C)c(F)c1 [compound 172, 1-{3-Fluoro-4-[5-(2,4-dimethylbenzoyl)-1-methyl-1H-pyrrol-2-ylmethyl]phenyl}-3-methylsulfamide] | – |
| 950 | 70 | COc1ccc(C(=O)c2ccc(Cc3ccc(NS(=O)(=O)CCO)cc3F)n2C)cc1 [compound 106, N-{3-Fluoro-4-[5-(4-methoxybenzoyl)-1-methyl-1H-pyrrol-2-ylmethyl]phenyl}-2-(hydroxy)ethanesulfonamide] | – |
| 210000 | 700 | Cc1cc(Cc2ccc(NS(=O)(=O)CCO)cn2)n(C)c1C(=O)c1ccc(Cl)cc1 [compound 267, N-{2-[5-(4-Chlorobenzoyl)-1,4-dimethyl-1H-pyrrol-2-ylmethyl]pyridin-5-yl}-2-(hydroxy)ethanesulfonamide] | – |
| 64 | 29 | COc1ccc(C(=O)c2ccc3n2CCC3c2ccc(NS(N)(=O)=O)cc2Cl)cc1 (stereo not drawn) [compound 223, 1-{3-Chloro-4-[5-(4-methoxybenzoyl)-1,2-dihydro-3H-pyrrolizin-1-yl]phenyl}sulfamide] | – |
| 45 | 58 | COc1ccc(C(=O)c2ccc3n2CCC3c2ccc(NS(=O)(=O)CCO)cc2Cl)cc1 (stereo not drawn) [compound 133, N-{3-Chloro-4-[5-(4-methoxybenzoyl)-1,2-dihydro-3H-pyrrolizin-1-yl]phenyl}-2(hydroxy)ethanesulfonamide] | – |
| 600 | 100 | Cc1cc(Cc2ccc(NS(N)(=O)=O)cc2C#N)n(C)c1C(=O)c1ccc(Cl)cc1 [compound 147, 1-{3-Cyano-4-[5-(4-chlorobenzoyl)-1,4-dimethyl-1H-pyrrol-2-ylmethyl]phenyl}sulfamide] | – |
| 750 | 240 | Cc1cc(Cc2ccc(NS(=O)(=O)CCO)cc2F)n(C)c1C(=O)c1ccc(F)cc1 [compound 104, N-{3-Fluoro-4-[5-(4-fluorobenzoyl)-1,4-dimethyl-1H-pyrrol-2-ylmethyl]phenyl}-2-(hydroxy)ethanesulfonamide] | – |
| < 100 | 70 | COc1ccc(C(=O)c2c(C)cc(Cc3ccc(NS(N)(=O)=O)cc3F)n2C)cc1 [compound 197, 1-{3-Fluoro-4-[5-(4-Methoxybenzoyl)-1,4-dimethyl-1H-pyrrol-2-ylmethyl]phenyl}-sulfamide] | – |
| 460 | 74 | NS(=O)(=O)Nc1ccc(C2CCn3c(C(=O)c4ccccc4)ccc32)c(Cl)c1 (stereo not drawn) [compound 222, 1-{3-Chloro-4-[5-benzoyl-1,2-dihydro-3H-pyrrolizin-1-yl]phenyl}sulfamide] | – |
| 160 | 28 | Cc1cc(Cc2ccc(NS(C)(=O)=O)cc2F)n(C)c1C(=O)c1ccccc1 [compound 60, N-{3-Fluoro-4-[5-benzoyl-1,4-dimethyl-1H-pyrrol-2-ylmethyl]phenyl}methanesulfonamide] | – |
| 3900 | 30 | Cc1cc(Cc2ccc(NS(N)(=O)=O)cc2)n(C)c1C(=O)c1ccc(Cl)cc1 [compound 141, 1-{4-[5-(4-Chlorobenzoyl)-1,4-dimethyl-1H-pyrrol-2-ylmethyl]phenyl}sulfamide] | – |
| 210 | 400 | CSc1ccc(C(=O)c2c(C)cc(Cc3ccc(NS(=O)(=O)N(C)C)cn3)n2C)cc1 [compound 296, 1-{2-[5-(4-Methylthiobenzoyl)-1,4-dimethyl-1H-pyrrol-2-ylmethyl]pyridin-5-yl}-3,3-di-methylsulfamide] | – |
| 34000 | 54 | Cc1ccc(C(=O)c2ccc(Cc3ccc(NS(N)(=O)=O)cc3F)n2C)cc1 [compound 154, 1-{3-Fluoro-4-[5-(4-methylbenzoyl)-1-methyl-1H-pyrrol-2-ylmethyl]phenyl}sulfamide] | – |
| 600 | 100 | Cc1cc(Cc2ccc(NS(N)(=O)=O)cn2)n(C)c1C(=O)c1ccccc1 [compound 295, 1-{2-[5-benzoyl-1,4-dimethyl-1H-pyrrol-2-ylmethyl]pyridin-5-yl}sulfamide] | – |
| 460 | 240 | CNS(=O)(=O)Nc1ccc(Cc2cc(C)c(C(=O)c3ccc(F)cc3)n2C)c(F)c1 [compound 206, 1-{3-Fluoro-4-[5-(4-fluorobenzoyl)-1,4-dimethyl-1H-pyrrol-2-ylmethyl]phenyl}-3-methylsulfamide] | – |
| 256000 | 43700 | CC(=O)Nc1ccc(Cc2cc(C)c(C(=O)c3ccc(Cl)cc3)n2C)nc1 [compound 329, N-{2-[5-(4-Chlorobenzoyl)-1,4-dimethyl-1H-pyrrol-2-ylmethyl]pyridin-5-yl}acetamide] | – |
| 20 | 60 | Cc1cc(Cc2ccc(NS(C)(=O)=O)cc2F)n(C)c1C(=O)c1cccs1 [compound 340, N-{3-Fluoro-4-[5-(2-thenoyl)-1,4-dimethyl-1H-pyrrol-2-ylmethyl]phenyl}-methanesulfonamide] | – |
| 9100 | 2600 | Cc1cc(Cc2ccc(NS(=O)(=O)N(C)C)cn2)n(C)c1C(=O)c1ccccc1 [compound 294, 1-{2-[5-Benzoyl-1,4-dimethyl-1H-pyrrol-2-ylmethyl]pyridin-5-yl}-3,3-dimethylsulfamide] | – |
| 415000 | 63 | Cc1cc(Cc2c(F)cc(NS(C)(=O)=O)cc2F)n(C)c1C(=O)c1ccc(Cl)cc1 [compound 27, N-{3,5-Difluoro-4-[5-(4-chlorobenzoyl)-1,4-dimethyl-1H-pyrrol-2-ylmethyl]-phenyl}-methanesulfonamide] | – |
| 360000 | 200 | Cc1cc(Cc2ccc(NC(=S)Nc3ccccc3)cn2)n(C)c1C(=O)c1ccc(Cl)cc1 [compound 316, 1-{2-[5-(4-Chlorobenzoyl)-1,4-dimethyl-1H-pyrrol-2-ylmethyl]pyridin-5-yl}-3-phenyl-2-thiourea] | – |
| 60000 | 500 | Cc1ccc(C(=O)c2ccc(Cc3ncc(NS(C)(=O)=O)cc3Cl)n2C)cc1 [compound 276, N-{3-Chloro-2-[5-(4-methylbenzoyl)-1-methyl-1H-pyrrol-2-ylmethyl]pyridin-5-yl}-methanesulfonamide] | – |
| 3200 | 50 | COc1ccc(C(=O)c2ccc(Cc3ccc(NS(N)(=O)=O)cc3C#N)n2C)cc1 [compound 202, 1-{3-Cyano-4-[5-(4-methoxybenzoyl)-1-methyl-1H-pyrrol-2-ylmethyl]phenyl}-sulfamide] | – |
